Results: US6855843B2, “Inhibitors of α4 mediated cell adhesion” (Tanabe Seiyaku Co., Ltd., priority 1998, dated 2005)
pIC50: −log10 of the molar value.

Legend:
[1] = target: T1, α4β7 (adhesion of RPMI cells to CS-1) (Homo sapiens, UniProt P13612+P26010); assay: RPMI-CS-1 cell adhesion assay; assay type: cell-based; conditions: adhesion of RPMI B-cell line (expresses α4β7) to CS-1 peptide coated microwells; read-out: RPMI-CS-1 IC50 value range
T1 construct: endogenous in cells
T1 sequence (P13612 34-1032): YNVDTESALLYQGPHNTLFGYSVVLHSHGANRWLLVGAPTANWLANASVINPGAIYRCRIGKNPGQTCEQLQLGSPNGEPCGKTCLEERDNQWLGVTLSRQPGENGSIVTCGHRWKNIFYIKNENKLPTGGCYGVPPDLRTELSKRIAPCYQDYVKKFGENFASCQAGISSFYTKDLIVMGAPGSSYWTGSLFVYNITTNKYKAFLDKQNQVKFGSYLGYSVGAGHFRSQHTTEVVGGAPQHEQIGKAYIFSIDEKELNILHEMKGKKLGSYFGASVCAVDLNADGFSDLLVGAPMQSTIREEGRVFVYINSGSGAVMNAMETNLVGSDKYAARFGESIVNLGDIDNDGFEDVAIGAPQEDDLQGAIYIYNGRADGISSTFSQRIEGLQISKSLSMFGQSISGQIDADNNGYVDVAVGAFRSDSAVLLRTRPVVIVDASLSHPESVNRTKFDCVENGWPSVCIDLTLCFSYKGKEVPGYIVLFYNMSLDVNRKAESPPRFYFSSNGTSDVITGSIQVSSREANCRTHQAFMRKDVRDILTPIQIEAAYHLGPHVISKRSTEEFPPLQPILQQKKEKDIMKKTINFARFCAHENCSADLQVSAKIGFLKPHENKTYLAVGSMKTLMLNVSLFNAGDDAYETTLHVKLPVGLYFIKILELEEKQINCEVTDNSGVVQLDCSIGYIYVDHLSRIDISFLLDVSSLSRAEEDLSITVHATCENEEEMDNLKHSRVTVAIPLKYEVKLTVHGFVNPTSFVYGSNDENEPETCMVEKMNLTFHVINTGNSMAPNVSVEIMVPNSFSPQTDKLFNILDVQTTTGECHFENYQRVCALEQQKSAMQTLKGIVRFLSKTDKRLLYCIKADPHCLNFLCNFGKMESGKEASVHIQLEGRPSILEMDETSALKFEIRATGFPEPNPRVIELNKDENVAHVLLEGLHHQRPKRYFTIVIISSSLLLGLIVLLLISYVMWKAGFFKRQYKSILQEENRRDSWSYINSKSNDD
T1 sequence (P26010 20-798): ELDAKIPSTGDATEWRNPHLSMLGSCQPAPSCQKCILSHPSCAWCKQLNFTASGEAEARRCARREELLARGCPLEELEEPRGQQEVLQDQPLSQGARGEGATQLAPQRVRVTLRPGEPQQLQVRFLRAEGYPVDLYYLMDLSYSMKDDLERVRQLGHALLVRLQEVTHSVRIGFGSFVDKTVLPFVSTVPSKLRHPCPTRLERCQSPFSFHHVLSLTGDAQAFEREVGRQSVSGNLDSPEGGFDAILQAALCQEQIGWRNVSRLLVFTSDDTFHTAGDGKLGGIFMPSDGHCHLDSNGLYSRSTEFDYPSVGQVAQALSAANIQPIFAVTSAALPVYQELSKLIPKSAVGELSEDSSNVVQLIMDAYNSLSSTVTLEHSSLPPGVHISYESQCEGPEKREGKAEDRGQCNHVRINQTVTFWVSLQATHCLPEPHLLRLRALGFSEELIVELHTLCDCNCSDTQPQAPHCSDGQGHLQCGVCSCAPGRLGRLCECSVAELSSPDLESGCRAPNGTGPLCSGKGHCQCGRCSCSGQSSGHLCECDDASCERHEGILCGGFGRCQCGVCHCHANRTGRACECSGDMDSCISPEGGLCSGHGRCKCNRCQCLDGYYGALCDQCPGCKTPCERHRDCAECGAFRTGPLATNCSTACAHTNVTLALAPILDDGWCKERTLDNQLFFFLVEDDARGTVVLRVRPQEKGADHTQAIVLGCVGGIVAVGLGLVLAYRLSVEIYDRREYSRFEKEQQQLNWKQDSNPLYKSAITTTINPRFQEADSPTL

| Compound | pIC50 [1] | melting point |
| --- | --- | --- |
| COc1cc(C(=O)O)cc(OC)c1-c1ccc(C[C@H](NC(=O)c2c(Cl)cccc2Cl)C(=O)O)cc1 [Example 172, N-(2,6-Dichlorobenzoyl)-4-(4-carboxy-2,6-dimethoxyphenyl)-L-phenylalanine] | > 6.52 | 277 to 278 °C |
| CC(=O)c1ccc(-c2ccc(C[C@H](NC(=O)c3c(Cl)cccc3Cl)C(=O)O)cc2)s1 [Example 215, N-(2,6-Dichlorobenzoyl)-4-(5-acetyl-2-thienyl)-L-phenylalanine] | 6.00 to 6.52 | 194 to 195 °C |
| COc1cccc(OC)c1-c1ccc(C[C@H](NC(=O)c2c(Cl)cc(NC(N)=O)cc2Cl)C(=O)O)cc1 [Example 204] | > 6.52 | 220 to 221 °C |
| CC(=O)c1cc(C[C@H](NC(=O)c2c(Cl)cccc2Cl)C(=O)O)ccc1-c1ccccc1 [Example 72, 3-Acetyl-N-(2,6-dichlorobenzoyl)-4-phenyl-L-phenylalanine] | 6.00 to 6.52 | 109 to 111 °C |
| CCCc1cc(OC)c(-c2ccc(C[C@H](NC(=O)c3c(Cl)cccc3Cl)C(=O)O)cc2)c(OC)c1 [Example 149] | > 6.52 | 238 to 239 °C (dec.) |
| COc1ccccc1-c1ccc(C[C@H](NC(=O)c2c(Cl)cccc2Cl)C(=O)O)cc1C(C)=O [Example 71, 3-Acetyl-N-(2,6-dichlorobenzoyl)-4-(2-methoxyphenyl)-L-phenylalanine] | > 6.52 | 87 to 89 °C |
| COc1ccc(C(N)=O)c(OC)c1-c1ccc(C[C@H](NC(=O)c2c(Cl)cc(NC(N)=O)cc2Cl)C(=O)O)cc1 [Example 205, N-(4-Ureido-2,6-dichlorobenzoyl)-4-(3-carbamoyl-2,6-dimethoxyphenyl)-L-phenylalanine] | > 6.52 | 217 to 219 °C |
| COc1cc(C(=O)NS(C)(=O)=O)cc(OC)c1-c1ccc(C[C@H](NC(=O)c2c(Cl)cccc2Cl)C(=O)O)cc1 [Example 173, N-(2,6-Dichlorobenzoyl)-4-[4-(methanesulfonylamino)carbonyl-2,6-dimethoxyphenyl]-L-phenylalanine] | > 6.52 | 277 to 278 °C |
| COc1ccc(F)c(OC)c1-c1ccc(C[C@H](NC(=O)c2c(Cl)cccc2Cl)C(=O)O)cc1 [Example 153A, N-(2,6-Dichlorobenzoyl)-4-(2,6-dimethoxy-3-fluorophenyl)-L-phenylalanine] | > 6.52 | 228 to 229 °C |
| COc1ccccc1-c1ccc(C[C@H](NC(=O)c2ccc(Br)cc2Cl)C(=O)O)cc1 [Example 212] | 5.30 to 6.00 | 62 to 63 °C |
| COc1ccccc1-c1ccc(C[C@H](NC(=O)c2ccc(NC(=S)Nc3ccccc3)cc2Cl)C(=O)O)cc1 [Example 197] | 6.00 to 6.52 | 145 to 146 °C |
| CNC(=O)Nc1cc(Cl)c(C(=O)N[C@@H](Cc2ccc(-c3c(OC)cccc3OC)cc2)C(=O)O)c(Cl)c1 [Example 203] | > 6.52 | 110 to 112 °C |
| COc1cc(NS(C)(=O)=O)cc(OC)c1-c1ccc(C[C@H](NC(=O)c2c(Cl)cccc2Cl)C(=O)O)cc1 [Example 163, N-(2,6-Dichlorobenzoyl)-4-[2,6-dimethoxy-4-[(methylsulfonyl)amino]phenyl]-L-phenylalanine] | > 6.52 | 154 to 155 °C |
| CNC(=O)c1cc(OC)c(-c2ccc(C[C@H](NC(=O)c3c(Cl)cccc3Cl)C(=O)O)cc2)c(OC)c1 [Example 165, N-(2,6-Dichlorobenzoyl)-4-(4-methylcarbamoyl-2,6-dimethoxyphenyl)-L-phenylalanine] | > 6.52 | 251 to 252 °C |
| CNC(=O)Nc1cc(OC)c(-c2ccc(C[C@H](NC(=O)c3c(Cl)cccc3Cl)C(=O)O)cc2)c(OC)c1 [Example 160, N-(2,6-Dichlorobenzoyl)-4-[4-(3-methylureido)-2,6-dimethoxyphenyl]-L-phenylalanine] | > 6.52 | 206 to 207 °C |

Further lines, results first:

| pIC50 [1] | melting point | Compound |
| --- | --- | --- |
| > 6.52 | 244 to 245 °C | COc1ccc(NC(C)=O)c(OC)c1-c1ccc(C[C@H](NC(=O)c2c(Cl)cccc2Cl)C(=O)O)cc1 [Example 325, N-(2,6-Dichlorobenzoyl)-4-[2,6-dimethoxy-3-(acetylamino)phenyl]-L-phenylalanine] |
| > 6.52 | 274 °C | CNCc1cc(OC)c(-c2ccc(C[C@H](NC(=O)c3c(Cl)cccc3Cl)C(=O)O)cc2)c(OC)c1 [Example 242, N-(2,6-Dichlorobenzoyl)-4-[2,6-dimethoxy-4-[(methylamino)methyl]phenyl]-L-phenylalanine] |
| > 6.52 | 168 to 169 °C | CN(C)CCOc1cccc(O)c1-c1ccc(C[C@H](NC(=O)c2c(Cl)cccc2Cl)C(=O)O)cc1 [Example 232] |
| > 6.52 | 131 °C | COc1ccccc1-c1ccc(C[C@H](NC(=O)c2c(Cl)cccc2Cl)C(=O)O)cc1Cl [Example 336, N-(2,6-Dichlorobenzoyl)-3-chloro-4-(2-methoxyphenyl)-L-phenylalanine] |
| 6.00 to 6.52 | 93 to 94 °C | O=C(N[C@@H](Cc1ccc(-c2c(OCC(F)(F)F)cccc2OCC(F)(F)F)cc1)C(=O)O)c1c(Cl)cccc1Cl [Example 230] |
| > 6.52 | 141.9 °C | COc1cccc(OC)c1-c1ccc(C[C@H](NC(=O)c2c(Cl)cc(-c3nccs3)cc2Cl)C(=O)O)cc1 [Example 306, N-[4-(1,3-thiazol-2-yl)-2,6-dichlorobenzoyl]-4-(2,6-dimethoxyphenyl)-L-phenylalanine] |
| > 6.52 | 180.4 °C | COc1cccc(OC)c1-c1ccc(C[C@H](NC(=S)c2c(Cl)cccc2Cl)C(=O)O)cc1 [Example 266, N-(2,6-Dichlorothiobenzoyl)-4-(2,6-dimethoxyphenyl)-L-phenylalanine] |
| > 6.52 | 215 °C | COc1cccc(OC)c1-c1ccc(C[C@H](NC(=O)c2c(Cl)cc(-c3ccccc3)cc2Cl)C(=O)O)cc1 [Example 301, N-(2,6-Dichloro-4-phenylbenzoyl)-4-(2,6-dimethoxyphenyl)-L-phenylalanine] |
| > 6.52 | 178.9 °C | COc1cc(CCN2CCN(C)CC2)cc(OC)c1-c1ccc(C[C@H](NC(=O)c2c(Cl)cccc2Cl)C(=O)O)cc1 [Example 264, N-(2,6-Dichlorobenzoyl)-4-[2,6-dimethoxy-4-[2-(4-methyl-1-piperazinyl)ethyl]phenyl]-L-phenylalanine] |
| > 6.52 | 214 to 215 °C | O=C(N[C@@H](Cc1ccc(-c2cccc3c2OCCC3)cc1)C(=O)O)c1c(Cl)cccc1Cl [Example 328] |
| > 6.52 | 206 to 207 °C | COc1cccc(OC)c1-c1ccc(C[C@H](NC(=O)c2c(Cl)cc(F)cc2Cl)C(=O)O)cc1 [Example 320, N-(2,6-Dichloro-4-fluorobenzoyl)-4-(2,6-dimethoxyphenyl)-L-phenylalanine] |
| > 6.52 | 86 to 88 °C | CCCCCCC(=O)c1cc(C[C@H](NC(=O)c2c(Cl)cccc2Cl)C(=O)O)ccc1-c1ccccc1OC [Example 339] |
| > 6.52 | 199 °C | COc1cccc(OC)c1-c1ccc(C[C@H](NC(=O)c2c(Cl)cc(-c3cccn3C)cc2Cl)C(=O)O)cc1 [Example 302, N-[2,6-Dichloro-4-(1-methyl-2-pyrrolyl)benzoyl]-4-(2,6-dimethoxyphenyl)-L-phenylalanine] |
